{"source": "patent US20130273057A1", "about": "“METHODS AND COMPOSITIONS FOR THE TREATMENT AND DIAGNOSIS OF VASCULAR INFLAMMATORY DISORDERS OR ENDOTHELIAL CELL DISORDERS” (Beth Israel Deaconess Medical Center, Inc., priority 2007, published 2013)", "key": {"MER": {"system": "MER", "experiment": "Thrombin-induced receptor tyrosine kinase phosphorylation in HUVECs (4G10 immunoprecipitation/western blot)", "format": "cell-based, human", "conditions": "confluent HUVECs pretreated with 10 μM SU5416 for 2 hrs; 5 U/ml thrombin", "excerpt": "(§1) (−): No thrombin; (T): 5 U/ml thrombin. Molecular weights are in kDa."}, "Tie-1 endodomain": {"system": "Tie-1 endodomain", "experiment": "Thrombin-induced receptor tyrosine kinase phosphorylation in HUVECs (4G10 immunoprecipitation/western blot)", "format": "cell-based, human", "conditions": "confluent HUVECs pretreated with 10 μM SU5416 for 2 hrs; 5 U/ml thrombin", "excerpt": "as §1"}, "Tie-2": {"system": "Tie-2", "experiment": "Thrombin-induced receptor tyrosine kinase phosphorylation in HUVECs (4G10 immunoprecipitation/western blot)", "format": "cell-based, human", "conditions": "confluent HUVECs pretreated with 10 μM SU5416 for 2 hrs; 5 U/ml thrombin", "excerpt": "as §1"}, "VEGFR2": {"system": "VEGFR2", "experiment": "Thrombin-induced receptor tyrosine kinase phosphorylation in HUVECs (4G10 immunoprecipitation/western blot)", "format": "cell-based, human", "conditions": "confluent HUVECs pretreated with 10 μM SU5416 for 2 hrs; 5 U/ml thrombin", "excerpt": "as §1"}, "HUVEC monolayer [1]": {"system": "HUVEC monolayer", "experiment": "Permeability assay, FITC-BSA across HUVEC monolayer in Transwell", "format": "cell-based, human", "conditions": "10 μM SU5416 1 hour, 5 U/ml thrombin 10 mins", "description": "FIG. 12 is a graph showing the thrombin induced-endothelial barrier dysfunction requires VEGFR activity. Confluent HUVEC monolayers were established in Transwell inserts. […] After 10 minutes of stimulation, fluorescein-labeled BSA that had diffused to the lower chamber was detected by fluorescence measurement and used as a surrogate marker of endothelial permeability. T: thrombin; SU: SU5416.\nPermeability assay: 50,000 HUVECs were seeded in a Transwell insert (Corning 3496) in 100 μl of full EGM2-MV medium. EGM2-MV medium (600 μl) was added to the lower chamber. An endothelial monolayer was allowed to establish overnight. […] The inserts were then immediately transferred to a new well containing 500 μl PBS (with Mg^2+/Ca^2+; GIBCO 14040-141). After 10 mins of incubation, the Transwells were removed, and fluorescence of the PBS in the lower chamber was measured using a CytoFluor Multiwell Plate Reader (Series 4000) with the following settings: excitation λ 485/20 […], emission λ 530/25. Immunostaining: LabTek slide chambers (177429) were precoated with 50 μg/ml rat tail collagen type-1 (BD Biosciences, 354236) at 37° C. for 1 hour according to the manufacturer's protocol. […] Images were recorded using a fluorescence microscope (Nikon Corporation, Tokyo, Japan) and coupled to a Spot RT camera (Diagnostic Instruments Inc, Sterling Heights, Mich.). […]"}, "HUVEC monolayer [2]": {"system": "HUVEC monolayer", "experiment": "Immunostaining of VE-cadherin and actin stress fiber, endothelial gap formation", "format": "cell-based, human", "conditions": "10 μM SU5416 2 hours", "description": "VE-cadherin, actin stress fiber, and nuclei were stained with anti VE-cadherin antibody (green), phalloidin (red), and DAPI (blue), respectively.\nEGM2-MV medium (600 μl) was added to the lower chamber. An endothelial monolayer was allowed to establish overnight. […] Each slide chamber was seeded with 200,000 HUVECs in one ml of EGM2-MV medium. An endothelial monolayer was allowed to established overnight. […] After 15 mins of stimulation, cells were fixed with 4% paraformaldehyde in PBS for 15 mins and permeabilized with 0.5% Triton X-100 in PBS for 5 mins. […] After 3 washes with 0.5% FBS/PBS, the samples were mounted in a drop of ProLong Gold antifade reagent with DAPI (Probes, P36931). Images were recorded using a fluorescence microscope (Nikon Corporation, Tokyo, Japan) and coupled to a Spot RT camera (Diagnostic Instruments Inc, Sterling Heights, Mich.). Western blotting: To examine the phosphorylation status of VE-Cadherin and myosin light chain"}, "myosin light chain (MLC)": {"system": "myosin light chain (MLC)", "experiment": "Western blot of MLC phosphorylation upon thrombin stimulation", "format": "cell-based, human", "conditions": "10 μM SU5416 pretreatment; thrombin 5 minutes; serine 19", "description": "(§2) FIGS. 14A-14C show transactivation of VEGFR is critical for tyrosine phosphorylation of VE-cadherin and p120 but not involved in MLC signaling. […] To preserve tyrosine phosphorylation, cells were then treated with 2 mM Na3VO4/2 mM H2O2 for 5 mins prior to lysis (Lampugnani, Corada et al., J. Cell Sci. 110 (Pt 17): 2065-2077, (1997)). A portion of the clarified total lysates was analyzed by western blot using an anti-phospho MLC antibody. The membrane was stripped and reblotted with anti GAPDH antibody. In FIG. 14B VE-cadherin was immunoprecipitated from lysates prepared in FIG. 14A. Tyrosine phosphorylation was detected by 4G10 antibody (FIG. 14B, i). The membrane was stripped and reblotted with an anti VE-cadherin antibody (FIG. 14B, ii). […] 4G10 immunoprecipitates were fractioned by SDS-PAGE, and p120 was detected by western blot. (−): No thrombin; (T): 5 U/ml thrombin. Molecular weights are in kDa.\n(§3) (MLC) upon thrombin stimulation, a procedure derived from a published protocol was used (Ukropec et al., J. Biol. Chem. 275: 5983-5986, (2000)). […] Cells were then washed with PBS containing Mg^2+/Ca^2+ (GIBCO 14040-141) supplemented with 1 mM Na3VO4 and 0.2 mM H2O2 at room temperature for 5 mins. […] After SDS-PAGE, phosphorylation of VE-cadherin was detected by western blotting with the antibody 4G10. […]"}, "VE-cadherin": {"system": "VE-cadherin", "experiment": "VE-cadherin tyrosine phosphorylation (immunoprecipitation/4G10 western blot)", "format": "cell-based, human", "conditions": "10 μM SU5416 pretreatment", "description": "as §2, §3"}, "p120": {"system": "p120", "experiment": "p120 tyrosine phosphorylation (4G10 immunoprecipitation/western blot)", "format": "cell-based, human", "conditions": "10 μM SU5416 2 hrs", "description": "as §2, §3"}, "[3]": {"system": "PAR-1 induced vascular leak in mice", "experiment": "PAR-1 induced vascular leak in mouse ears (Evan blue)", "format": "in vivo", "conditions": "ear pretreated with 10 μl of 10 μM SU5416 for one hour; PAR-1 activating peptide and Evan blue by tail vein; about 15 minutes", "description": "Then 20 μl of 5 mM PAR-1 activating peptide and 500 μl 0.1% Evan blue was injected into the mouse by tail vein injection. About 15 minutes later the extent of vascular leaks in the ears was documented by photography."}, "VEGFR-2": {"molecular_target": "VEGFR-2 (Homo sapiens, UniProt P35968)", "sequence (P35968 20-1356, species assumed)": "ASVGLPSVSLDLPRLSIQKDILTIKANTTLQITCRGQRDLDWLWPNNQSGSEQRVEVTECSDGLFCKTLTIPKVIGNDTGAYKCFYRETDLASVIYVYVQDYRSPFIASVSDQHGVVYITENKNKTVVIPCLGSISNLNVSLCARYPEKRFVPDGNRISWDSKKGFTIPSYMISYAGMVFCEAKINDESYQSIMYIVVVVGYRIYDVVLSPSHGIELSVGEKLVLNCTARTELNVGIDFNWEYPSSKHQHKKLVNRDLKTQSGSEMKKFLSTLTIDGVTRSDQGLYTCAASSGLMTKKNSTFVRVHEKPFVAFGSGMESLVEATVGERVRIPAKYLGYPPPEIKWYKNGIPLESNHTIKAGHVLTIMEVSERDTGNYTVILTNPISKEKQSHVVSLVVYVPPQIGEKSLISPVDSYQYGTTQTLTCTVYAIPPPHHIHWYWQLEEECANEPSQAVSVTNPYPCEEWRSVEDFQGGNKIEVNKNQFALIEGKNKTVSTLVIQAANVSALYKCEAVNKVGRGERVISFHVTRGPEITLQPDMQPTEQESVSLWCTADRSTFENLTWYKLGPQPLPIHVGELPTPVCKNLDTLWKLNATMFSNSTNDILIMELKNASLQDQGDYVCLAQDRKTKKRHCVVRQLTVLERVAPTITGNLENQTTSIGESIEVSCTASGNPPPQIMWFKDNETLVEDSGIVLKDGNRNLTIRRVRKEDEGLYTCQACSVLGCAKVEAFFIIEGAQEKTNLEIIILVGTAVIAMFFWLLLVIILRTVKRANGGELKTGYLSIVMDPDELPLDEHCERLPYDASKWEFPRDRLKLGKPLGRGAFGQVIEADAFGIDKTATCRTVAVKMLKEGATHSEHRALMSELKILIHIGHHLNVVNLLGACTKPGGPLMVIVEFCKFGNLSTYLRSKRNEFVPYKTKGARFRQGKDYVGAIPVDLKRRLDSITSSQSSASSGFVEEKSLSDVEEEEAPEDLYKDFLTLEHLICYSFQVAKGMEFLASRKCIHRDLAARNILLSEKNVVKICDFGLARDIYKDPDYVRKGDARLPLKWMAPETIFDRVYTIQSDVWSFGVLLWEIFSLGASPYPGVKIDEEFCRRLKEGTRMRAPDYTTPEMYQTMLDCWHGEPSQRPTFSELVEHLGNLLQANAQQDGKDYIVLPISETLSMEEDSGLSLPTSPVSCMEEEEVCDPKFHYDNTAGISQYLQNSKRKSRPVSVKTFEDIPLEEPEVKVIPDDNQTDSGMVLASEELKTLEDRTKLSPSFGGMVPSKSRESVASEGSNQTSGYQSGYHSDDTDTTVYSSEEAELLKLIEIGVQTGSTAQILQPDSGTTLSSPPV", "conditions": "cited from earlier work"}, "PDGF receptor": {"system": "PDGF receptor", "conditions": "relative to VEGFR-2; cited from earlier work"}, "FGF R": {"system": "FGF R", "conditions": "cited from earlier work"}, "several xenograph models": {"system": "several xenograph models", "conditions": "intra-peritoneal injection twice weekly, 50 mg/kg; cited from earlier work"}, "[4]": {"conditions": "thrombin or PAR-1 AP 30 μM, 15 mins"}}, "data": [{"smiles": "Cc1cc(C)c(/C=C2\\C(=O)Nc3ccccc32)[nH]1", "note": "[SU5416]", "values": [{"measurement": "activation of MER by thrombin stimulation", "setting": "MER", "result": "completely blocked"}, {"measurement": "thrombin-induced phosphorylation of Tie-1 endodomain", "setting": "Tie-1 endodomain", "result": "partially blocked"}, {"measurement": "thrombin-induced phosphorylation of Tie-2", "setting": "Tie-2", "result": "partially blocked"}, {"measurement": "phosphorylation of VEGFR2 induced by thrombin", "setting": "VEGFR2", "result": "significantly attenuated"}, {"measurement": "thrombin-induced increase in endothelial permeability", "setting": "HUVEC monolayer [1]", "result": "completely blocked"}, {"measurement": "stress fiber formation induced by thrombin", "setting": "HUVEC monolayer [2]; thrombin 15 mins", "result": "did not block"}, {"measurement": "VE-cadherin disruption induced by thrombin or PAR-1 AP", "setting": "HUVEC monolayer [2]; [4]", "result": "completely blocked"}, {"measurement": "intercellular gap formation induced by thrombin or PAR-1 AP", "setting": "HUVEC monolayer [2]; [4]", "result": "no intercellular gaps formed"}, {"measurement": "serine phosphorylation of MLC induced by thrombin", "setting": "myosin light chain (MLC)", "result": "did not affect"}, {"measurement": "thrombin-induced tyrosine phosphorylation of VE-cadherin", "setting": "VE-cadherin", "result": "significantly blocked"}, {"measurement": "thrombin-induced tyrosine phosphorylation of p120", "setting": "p120", "result": "significantly blocked"}, {"measurement": "PAR-1 induced vascular leak in mice", "setting": "[3]", "result": "inhibited"}, {"measurement": "blocking VEGFR-2 function in cells", "setting": "VEGFR-2", "result": "most effective"}, {"measurement": "inhibition of PDGF receptor in cell based assays, times less effective", "setting": "PDGF receptor", "result": 20, "unit": "times"}, {"measurement": "inhibition of FGF R", "setting": "FGF R", "result": "poor inhibitor"}, {"measurement": "tumor progression in xenograph models", "setting": "several xenograph models", "result": "effectively blocks"}]}]}
